# Results as given in patent US20100311678A1, “METHODS AND COMPOSITIONS FOR TREATING CANCER AND MODULATING SIGNAL TRANSDUCTION AND METABOLISM PATHWAYS” (priority 2007, published 2010).
# “Also recorded” adds a separate entry of the source.
# Tests used:
# [1] = test system: adult rat dissociated dorsal root ganglion (DRG) neurons; experiment: Intracellular delivery of fluorescent doxorubicin into dissociated DRG neurons with the TRPM8 agonist menthol (micrographs); assay type: cell-based; conditions: 2 mM doxorubicin/100 mM L-menthol for 10 minutes vs 2 mM doxorubicin alone for 20 minutes; fluorescence micrographs, FIG. 1
# Experimental: FIG. 1 is a series of micrographs showing intracellular delivery of doxorubicin a fluorescent antiproliferative agent into adult rat dissociated dorsal root ganglion (DRG) neurons. The DRG neurons were treated with vehicle control (FIG. 1A), 2 mM doxorubicin (Adriamycin®) for 20 minutes (FIG. 1B), or 2 mM doxorubicin/100 mM L-menthol for 10 minutes (FIG. 1C). […] The size and number of the fluorescently labeled neurons are similar to those of TRPM8 expressing neurons.
# The selective administration of compounds or agents that are cytotoxic to cancer cells is accomplished by the co-administration of menthol, an agonist of the large-pore cation channel receptor TRPM8, along with the antiproliferative agent doxorubicin (Adriamycin®). […] Once doxorubicin is within a cell it enters the nucleus where it binds to DNA.
# [2] = test system: adult rat dissociated dorsal root ganglion (DRG) neurons; experiment: Intracellular delivery of fluorescent doxorubicin into dissociated DRG neurons with the TRPV1 agonist capsaicin (micrographs); assay type: cell-based; conditions: 2 mM doxorubicin/1 mM capsaicin for 5 minutes vs 2 mM doxorubicin alone for 20 minutes; fluorescence micrographs, FIG. 2
# Experimental: FIG. 2 is a series of micrographs showing intracellular delivery of doxorubicin into adult rat dissociated dorsal root ganglion (DRG) neurons. The DRG neurons were treated with vehicle control (FIG. 2A), 2 mM doxorubicin (Adriamycin®) for 20 minutes (FIG. 2B), or 2 mM doxorubicin (Adriamycin®)/1 mM capsaicin for 5 minutes (FIG. 2C). […] The size and number of the fluorescently labeled neurons are similar to those of TRPV1 expressing neurons.
# The selective administration of compounds or agents that are cytotoxic to cancer cells is accomplished by the co-administration of capsaicin, an agonist of the large-pore cation channel receptor TRPV1, along with doxorubicin (Adriamycin®).
smiles,measurement,setting,value
COc1cccc2c1C(=O)c1c(O)c3c(c(O)c1C2=O)C[C@@](O)(C(=O)CO)C[C@@H]3O[C@H]1C[C@H](N)[C@H](O)[C@H](C)O1 [doxorubicin],intracellular delivery/accumulation of doxorubicin,[1],only entered into cells in the presence of menthol; also recorded: intracellular accumulation of the doxorubicin only into those DRG neurons that express TRPM8
same,intracellular delivery/accumulation of doxorubicin,[2],only entered into cells in the presence of capsaicin; also recorded: intracellular accumulation of the doxorubicin only into those DRG neurons that express TRPV1
